Reference: PubChem BioAssay (NCI)
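Protocol summary: plate cells (96-well), add compound at 5 concentrations, incubate 48 h, interpolate endpoints linearly. At the TGI there is no net growth.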

Legend:
Assay in all cases: NCI anticancer screen, dose series, 48 h
IGROV1 ovarian = tested on: IGROV1 ovarian
ACHN renal = tested on: ACHN renal
LOX IMVI melanoma = tested on: LOX IMVI melanoma
NCI-H460 lung = tested on: NCI-H460 lung
SF-295 CNS = tested on: SF-295 CNS
K-562 leukemia = tested on: K-562 leukemia
MALME-3M melanoma = tested on: MALME-3M melanoma
MOLT-4 leukemia = tested on: MOLT-4 leukemia
COLO 205 colon = tested on: COLO 205 colon
KM20L2 colon = tested on: KM20L2 colon
SF-268 CNS = tested on: SF-268 CNS
DMS 114 small cell lung = tested on: DMS 114 small cell lung
OVCAR-4 ovarian = tested on: OVCAR-4 ovarian
HOP-18 NSCLC = tested on: HOP-18 NSCLC
A549 NSCLC = tested on: A549 NSCLC
RPMI-8226 leukemia = tested on: RPMI-8226 leukemia
DMS 273 small cell lung = tested on: DMS 273 small cell lung
CAKI-1 renal = tested on: CAKI-1 renal
SW-620 colon = tested on: SW-620 colon
EKVX NSCLC = tested on: EKVX NSCLC
A498 renal = tested on: A498 renal
OVCAR-8 ovarian = tested on: OVCAR-8 ovarian
HL-60(TB) leukemia = tested on: HL-60(TB) leukemia
U251 CNS = tested on: U251 CNS
OVCAR-3 ovarian = tested on: OVCAR-3 ovarian
TK-10 renal = tested on: TK-10 renal
SNB-19 CNS = tested on: SNB-19 CNS
NCI-H23 lung = tested on: NCI-H23 lung
RXF 393 renal = tested on: RXF 393 renal
UACC-62 melanoma = tested on: UACC-62 melanoma
786-0 renal = tested on: 786-0 renal
HOP-92 NSCLC = tested on: HOP-92 NSCLC
SK-MEL-5 melanoma = tested on: SK-MEL-5 melanoma
UO-31 renal = tested on: UO-31 renal
SK-MEL-28 melanoma = tested on: SK-MEL-28 melanoma
SNB-75 CNS = tested on: SNB-75 CNS
HCT-15 colon = tested on: HCT-15 colon
HT29 colon = tested on: HT29 colon
UACC-257 melanoma = tested on: UACC-257 melanoma
SN12C renal = tested on: SN12C renal
HOP-62 NSCLC = tested on: HOP-62 NSCLC
SF-539 CNS = tested on: SF-539 CNS
NCI-H226 lung = tested on: NCI-H226 lung
NCI-H522 lung = tested on: NCI-H522 lung
SK-MEL-2 melanoma = tested on: SK-MEL-2 melanoma
CCRF-CEM leukemia = tested on: CCRF-CEM leukemia
LXFL 529 NSCLC = tested on: LXFL 529 NSCLC
M14 melanoma = tested on: M14 melanoma
OVCAR-5 ovarian = tested on: OVCAR-5 ovarian
XF 498 CNS = tested on: XF 498 CNS
SK-OV-3 ovarian = tested on: SK-OV-3 ovarian
KM12 colon = tested on: KM12 colon
M19-MEL melanoma = tested on: M19-MEL melanoma
HCC-2998 colon = tested on: HCC-2998 colon
SR leukemia = tested on: SR leukemia
DLD-1 colon = tested on: DLD-1 colon

O=[N+]([O-])c1nccn1CC(O)c1ccccc1 (centres undefined)
TGI (IGROV1 ovarian): > 100 µM | TGI (ACHN renal): > 100 µM | TGI (LOX IMVI melanoma): > 100 µM | TGI (NCI-H460 lung): > 100 µM | TGI (SF-295 CNS): > 100 µM | TGI (K-562 leukemia): > 100 µM | TGI (MALME-3M melanoma): > 100 µM | TGI (MOLT-4 leukemia): > 100 µM | TGI (COLO 205 colon): > 100 µM | TGI (KM20L2 colon): > 100 µM | TGI (SF-268 CNS): > 100 µM | TGI (DMS 114 small cell lung): > 100 µM | TGI (OVCAR-4 ovarian): > 100 µM | TGI (HOP-18 NSCLC): > 100 µM | TGI (A549 NSCLC): > 100 µM | TGI (RPMI-8226 leukemia): > 100 µM | TGI (DMS 273 small cell lung): > 100 µM | TGI (CAKI-1 renal): > 100 µM | TGI (SW-620 colon): > 100 µM | TGI (EKVX NSCLC): > 100 µM | TGI (A498 renal): > 100 µM | TGI (OVCAR-8 ovarian): > 100 µM | TGI (HL-60(TB) leukemia): > 100 µM | TGI (U251 CNS): > 100 µM | TGI (OVCAR-3 ovarian): > 100 µM | TGI (TK-10 renal): > 100 µM | TGI (SNB-19 CNS): > 100 µM | TGI (NCI-H23 lung): > 100 µM | TGI (RXF 393 renal): > 100 µM | TGI (UACC-62 melanoma): > 100 µM | TGI (786-0 renal): > 100 µM | TGI (HOP-92 NSCLC): > 100 µM | TGI (SK-MEL-5 melanoma): > 100 µM | TGI (UO-31 renal): > 100 µM | TGI (SK-MEL-28 melanoma): > 100 µM | TGI (SNB-75 CNS): > 100 µM | TGI (HCT-15 colon): > 100 µM | TGI (HT29 colon): > 100 µM | TGI (UACC-257 melanoma): > 100 µM | TGI (SN12C renal): > 100 µM | TGI (HOP-62 NSCLC): > 100 µM | TGI (SF-539 CNS): > 100 µM | TGI (NCI-H226 lung): > 100 µM | TGI (NCI-H522 lung): > 100 µM | TGI (SK-MEL-2 melanoma): > 100 µM | TGI (CCRF-CEM leukemia): > 100 µM | TGI (LXFL 529 NSCLC): > 100 µM | TGI (M14 melanoma): > 100 µM | TGI (OVCAR-5 ovarian): > 100 µM | TGI (XF 498 CNS): > 100 µM | TGI (SK-OV-3 ovarian): > 100 µM | TGI (KM12 colon): > 100 µM

CC#Cc1c(O)c2c(c(O)c1C#CC)C(=O)c1ccccc1C2=O
TGI (IGROV1 ovarian): > 100 µM | TGI (ACHN renal): > 100 µM | TGI (LOX IMVI melanoma): > 100 µM | TGI (K-562 leukemia): > 100 µM | TGI (MALME-3M melanoma): > 100 µM | TGI (MOLT-4 leukemia): > 100 µM | TGI (COLO 205 colon): > 100 µM | TGI (M19-MEL melanoma): > 100 µM | TGI (KM20L2 colon): > 100 µM | TGI (DMS 114 small cell lung): > 100 µM | TGI (OVCAR-4 ovarian): > 100 µM | TGI (A549 NSCLC): > 100 µM | TGI (RPMI-8226 leukemia): > 100 µM | TGI (DMS 273 small cell lung): > 100 µM | TGI (CAKI-1 renal): > 100 µM | TGI (SW-620 colon): > 100 µM | TGI (EKVX NSCLC): > 100 µM | TGI (OVCAR-8 ovarian): > 100 µM | TGI (HCC-2998 colon): > 100 µM | TGI (HL-60(TB) leukemia): > 100 µM | TGI (U251 CNS): > 100 µM | TGI (TK-10 renal): > 100 µM | TGI (SR leukemia): > 100 µM | TGI (UACC-62 melanoma): > 100 µM | TGI (786-0 renal): > 100 µM | TGI (SK-MEL-5 melanoma): > 100 µM | TGI (HCT-15 colon): > 100 µM | TGI (SN12C renal): > 100 µM | TGI (HOP-62 NSCLC): > 100 µM | TGI (SK-MEL-2 melanoma): > 100 µM | TGI (CCRF-CEM leukemia): > 100 µM | TGI (LXFL 529 NSCLC): 42.7 µM | TGI (M14 melanoma): > 100 µM | TGI (DLD-1 colon): > 100 µM | TGI (OVCAR-5 ovarian): > 100 µM | TGI (XF 498 CNS): > 100 µM | TGI (SK-OV-3 ovarian): > 100 µM
